Data taken from ChEMBL document CHEMBL5543113, “Amphiphilic α-Peptoid-deoxynojirimycin Conjugate-based Multivalent Glycosidase Inhibitor for Hypoglycemic Effect and Fluorescence Imaging” (J Med Chem, 2024).
Calls of active or inactive are those of the source. The rule behind the calls is not given here.

Tests used:
[1] = Inhibition of Aspergillus niger Alpha-glucosidase incubated for 10 mins by Lineweaver-Burk plot analysis
[2] = Inhibition of rice Alpha-glucosidase incubated for 10 mins by Lineweaver-Burk plot analysis; parameters: species or system Oryza sativa
[3] = Inhibition of C57BL/6J mouse Alpha-glucosidase incubated for 10 mins by Lineweaver-Burk plot analysis
[4] = biological target: Alpha-glucosidase (Saccharomyces cerevisiae S288c) (UniProt P53341+P38158+P07265); test: Inhibition of Saccharomyces cerevisiae Alpha-glucosidase at 1 mM incubated for 10 mins by absorbance based microplate spectrophotometric analysis; assay type: protein assay
Mus musculus [5] = test: Hypoglycemic activity in C57BL/6J mouse assessed as molar reduction in PBG level at 1.6 mg/kg, po co-administered with maltose and measured after 30 mins by glucometer relative to control; assay type: functional; parameters: scale not given: the % may be the effect or the level left; conditions: 0.5 h
Mus musculus [6] = test: Hypoglycemic activity in C57BL/6J mouse assessed as blood glucose level at 0.4 mg/kg, po co-administered with maltose and measured after 15 mins by glucometer (380.8 +/- 20.6 mg/dl); assay type: functional; conditions: 0.25 h
Mus musculus [7] = test: Hypoglycemic activity in C57BL/6J mouse assessed as blood glucose level at 0.8 mg/kg, po co-administered with maltose and measured after 15 mins by glucometer (380.8 +/- 20.6 mg/dl); assay type: functional; conditions: 0.25 h
Mus musculus [8] = test: Hypoglycemic activity in C57BL/6J mouse assessed as blood glucose level at 1.6 mg/kg, po co-administered with maltose and measured after 15 mins by glucometer (380.8 +/- 20.6 mg/dL); assay type: functional; conditions: 0.25 h
Mus musculus [9] = test: Hypoglycemic activity in C57BL/6J mouse assessed as blood glucose level at 0.4 mg/kg, po co-administered with maltose and measured after 30 mins by glucometer (380.8 +/- 20.6 mg/dL); assay type: functional; conditions: 0.5 h
Mus musculus [10] = test: Hypoglycemic activity in C57BL/6J mouse assessed as blood glucose level at 0.8 mg/kg, po co-administered with maltose and measured after 30 mins by glucometer (380.8 +/- 20.6 mg/dL); assay type: functional; conditions: 0.5 h
Mus musculus [11] = test: Hypoglycemic activity in C57BL/6J mouse assessed as blood glucose level at 1.6 mg/kg, po co-administered with maltose and measured after 30 mins by glucometer (380.8 +/- 20.6 mg/dL); assay type: functional; conditions: 0.5 h
Mus musculus [12] = test: Hypoglycemic activity in C57BL/6J mouse assessed as decrease in PBG level at 0.4 mg/kg, po co-administered with maltose and measured after 15 mins by glucometer relative to control; assay type: functional; parameters: scale not given: the % may be the effect or the level left; conditions: 0.25 h
Mus musculus [13] = test: Hypoglycemic activity in C57BL/6J mouse assessed as decrease in PBG level at 0.8 mg/kg, po co-administered with maltose and measured after 15 mins by glucometer relative to control; assay type: functional; parameters: scale not given: the % may be the effect or the level left; conditions: 0.25 h
Mus musculus [14] = test: Hypoglycemic activity in C57BL/6J mouse assessed as decrease in PBG level at 1.6 mg/kg, po co-administered with maltose and measured after 15 mins by glucometer relative to control; assay type: functional; parameters: scale not given: the % may be the effect or the level left; conditions: 0.25 h
Mus musculus [15] = test: Hypoglycemic activity in C57BL/6J mouse assessed as decrease in PBG level at 0.4 mg/kg, po co-administered with maltose and measured after 30 mins by glucometer relative to control; assay type: functional; parameters: scale not given: the % may be the effect or the level left; conditions: 0.5 h
Mus musculus [16] = test: Hypoglycemic activity in C57BL/6J mouse assessed as decrease in PBG level at 0.8 mg/kg, po co-administered with maltose and measured after 30 mins by glucometer relative to control; assay type: functional; parameters: scale not given: the % may be the effect or the level left; conditions: 0.5 h
Mus musculus [17] = test: Hypoglycemic activity in C57BL/6J mouse assessed as decrease in PBG level at 1.6 mg/kg, po co-administered with maltose and measured after 30 mins by glucometer relative to control; assay type: functional; parameters: scale not given: the % may be the effect or the level left; conditions: 0.5 h
Mus musculus [18] = test: Hypoglycemic activity in C57BL/6J mouse assessed as reduction in PBG level measured per DNJ unit at 0.4 mg/kg, po co-administered with maltose and measured at 15 to 30 mins by glucometer relative to control; assay type: functional; parameters: scale not given: the % may be the effect or the level left; conditions: time 15-30 min
Mus musculus [19] = test: Hypoglycemic activity in C57BL/6J mouse assessed as reduction in PBG level measured per DNJ unit at 0.8 mg/kg, po co-administered with maltose and measured at 15 to 30 mins by glucometer relative to control; assay type: functional; parameters: scale not given: the % may be the effect or the level left; conditions: time 15-30 min
Mus musculus [20] = test: Hypoglycemic activity in C57BL/6J mouse assessed as reduction in PBG level measured per DNJ unit at 1.6 mg/kg, po co-administered with maltose and measured at 15 to 30 mins by glucometer relative to control; assay type: functional; parameters: scale not given: the % may be the effect or the level left; conditions: time 15-30 min
Mus musculus [21] = test: Hypoglycemic activity in KKAy diabetic mouse model assessed as blood glucose level at 1.6 mg/kg, po co-administered with maltose and measured after 15 mins by glucometer (reference value: 582.6 +/- 22.9 mg/dl); assay type: functional; conditions: 0.25 h
Mus musculus [22] = test: Hypoglycemic activity in KKAy diabetic mouse model assessed as blood glucose level at 1.6 mg/kg, po co-administered with maltose and measured after 30 mins by glucometer (reference value: 582.6 +/- 22.9 mg/dl); assay type: functional; conditions: 0.5 h
Mus musculus [23] = test: Hypoglycemic activity in KKAy diabetic mouse model assessed as blood glucose level at 1.6 mg/kg, po co-administered with maltose and measured after 60 mins by glucometer (reference value: 582.6 +/- 22.9 mg/dl); assay type: functional; conditions: 1 h
Mus musculus [24] = test: Hypoglycemic activity in KKAy diabetic mouse model assessed as blood glucose level at 1.6 mg/kg, po co-administered with maltose and measured after 120 mins by glucometer (reference value: 582.6 +/- 22.9 mg/dl); assay type: functional; conditions: 2 h
Mus musculus [25] = test: Hypoglycemic activity in KKAy diabetic mouse model assessed as decrease in PBG level at 1.6 mg/kg, po co-administered with maltose and measured after 15 mins by glucometer relative to control; assay type: functional; parameters: scale not given: the % may be the effect or the level left; conditions: 0.25 h
Mus musculus [26] = test: Hypoglycemic activity in KKAy diabetic mouse model assessed as decrease in PBG level at 1.6 mg/kg, po co-administered with maltose and measured after 30 mins by glucometer relative to control; assay type: functional; parameters: scale not given: the % may be the effect or the level left; conditions: 0.5 h
Mus musculus [27] = test: Hypoglycemic activity in KKAy diabetic mouse model assessed as decrease in PBG level at 1.6 mg/kg, po co-administered with maltose and measured after 60 mins by glucometer relative to control; assay type: functional; parameters: scale not given: the % may be the effect or the level left; conditions: 1 h
Mus musculus [28] = test: Hypoglycemic activity in KKAy diabetic mouse model assessed as decrease in PBG level at 1.6 mg/kg, po co-administered with maltose and measured after 120 mins by glucometer relative to control; assay type: functional; parameters: scale not given: the % may be the effect or the level left; conditions: 2 h
Mus musculus [29] = test: Hypoglycemic activity in KKAy diabetic mouse model assessed as molar decrease in PBG level at 1.6 mg/kg, po co-administered with maltose and measured after 30 mins by glucometer relative to control; assay type: functional; parameters: scale not given: the % may be the effect or the level left; conditions: 0.5 h
Mus musculus [30] = test: Hypoglycemic activity in KKAy diabetic mouse model assessed as blood glucose level at 1.6 mg/kg, po co-administered with 1 g/kg maltose and measured after 15 mins by glucometer (reference value: 453 +/- 38.6 mg/dl); assay type: functional; conditions: 0.25 h
Mus musculus [31] = test: Hypoglycemic activity in KKAy diabetic mouse model assessed as blood glucose level at 1.6 mg/kg, po co-administered with 1 g/kg maltose and measured after 30 mins by glucometer (reference value: 491.4 +/- 22.5 mg/dl); assay type: functional; conditions: 0.5 h
Mus musculus [32] = test: Hypoglycemic activity in KKAy diabetic mouse model assessed as blood glucose level at 1.6 mg/kg, po co-administered with 1 g/kg maltose and measured after 60 mins by glucometer (reference value: 498.6 +/- 31.6 mg/dl); assay type: functional; conditions: 1 h
Mus musculus [33] = test: Hypoglycemic activity in KKAy diabetic mouse model assessed as blood glucose level at 1.6 mg/kg, po co-administered with 1 g/kg maltose and measured after 120 mins by glucometer (reference value: 278.4 +/- 14.9 mg/dl); assay type: functional; conditions: 2 h
Mus musculus [34] = test: Hypoglycemic activity in KKAy diabetic mouse model assessed as decrease in PBG level at 1.6 mg/kg, po co-administered with 1 g/kg maltose measured after 15 mins by glucometer relative to control; assay type: functional; parameters: scale not given: the % may be the effect or the level left; conditions: 0.25 h
Mus musculus [35] = test: Hypoglycemic activity in KKAy diabetic mouse model assessed as decrease in PBG level at 1.6 mg/kg, po co-administered with 1 g/kg maltose measured after 30 mins by glucometer relative to control; assay type: functional; parameters: scale not given: the % may be the effect or the level left; conditions: 0.5 h
Mus musculus [36] = test: Hypoglycemic activity in KKAy diabetic mouse model assessed as decrease in PBG level at 1.6 mg/kg, po co-administered with 1 g/kg maltose measured at 60 to 120 mins by glucometer; assay type: functional, organism-based; conditions: time 60-120 min
[37] = Self assembly property of the compound in water assessed as mean diameter at 1 x 10^-4 M by dynamic light scattering spectrometric analysis; assay type: physicochemical; conditions: buffer, 100 µM; dose 1 10^-4M
[38] = Self assembly property of the compound in water assessed as diameter at 1 x 10^-4 M by transmission electron microscopic analysis; assay type: physicochemical; conditions: buffer, 100 µM; dose 1 10^-4M
[39] = Self assembly property of compound in citric acid-phosphate buffer at pH 2 at 1 x 10^-4 M assessed as diameter by dynamic light scattering spectrometric analysis; assay type: physicochemical; conditions: pH 2, 100 µM, dose 1 10^-4M
[40] = Self assembly property of compound in citric acid-phosphate buffer at pH 3 to 7 at 1 x 10^-4M assessed as diameter by dynamic light scattering spectrometric analysis; assay type: physicochemical; conditions: pH 3, 100 µM, dose 1 10^-4M

OCCN1C[C@H](O)[C@@H](O)[C@H](O)[C@H]1CO [MIGLITOL]
Ki [1]: 20600 nM | Ki [2]: 180 nM | Ki [3]: 1460 nM | inhibition [4]: inactive | Activity (Mus musculus [5]): 2.8% | Activity (Mus musculus [6]): 348.8 mg/dL | Activity (Mus musculus [7]): 331.9 mg/dL | Activity (Mus musculus [8]): 298.8 mg/dL | Activity (Mus musculus [9]): 349.5 mg/dL | Activity (Mus musculus [10]): 318.2 mg/dL | Activity (Mus musculus [11]): 297.4 mg/dL | Activity (Mus musculus [12]): 6.2% | Activity (Mus musculus [13]): 10.7% | Activity (Mus musculus [14]): 19.6% | Activity (Mus musculus [15]): 8.2% | Activity (Mus musculus [16]): 16.5% | Activity (Mus musculus [17]): 21.9% | Activity (Mus musculus [18]): 4.2% | Activity (Mus musculus [19]): 4.3% | Activity (Mus musculus [20]): 2.8% | Activity (Mus musculus [21]): 532.2 mg/dL | Activity (Mus musculus [22]): 535.8 mg/dL | Activity (Mus musculus [23]): 512.4 mg/dL | Activity (Mus musculus [24]): 397.2 mg/dL | Activity (Mus musculus [25]): 3.2% | Activity (Mus musculus [26]): 8.6% | Activity (Mus musculus [27]): 7.7% | Activity (Mus musculus [28]): 9.4% | Activity (Mus musculus [29]): 1.1%

OC[C@H]1NC[C@H](O)[C@@H](O)[C@@H]1O [DUVOGLUSTAT]
Ki [1]: 3600 nM | Ki [2]: 17 nM | Ki [3]: 39 nM | inhibition [4]: inactive | Activity (Mus musculus [30]): 354 mg/dL | Activity (Mus musculus [31]): 476.4 mg/dL | Activity (Mus musculus [32]): 489 mg/dL | Activity (Mus musculus [33]): 296.4 mg/dL | Activity (Mus musculus [34]): 21.8% | Activity (Mus musculus [35]): 3.1% | Activity (Mus musculus [36]): inactive

CCCCCCCCCCCCCCCCCCNC(=O)CN(Cc1cn(CCCN2C[C@H](O)[C@@H](O)[C@H](O)[C@H]2CO)nn1)C(=O)CN(Cc1cn(CCCN2C[C@H](O)[C@@H](O)[C@H](O)[C@H]2CO)nn1)C(=O)CN(Cc1cn(CCCN2C[C@H](O)[C@@H](O)[C@H](O)[C@H]2CO)nn1)C(=O)CN(Cc1cn(CCCN2C[C@H](O)[C@@H](O)[C@H](O)[C@H]2CO)nn1)C(C)=O
Ki [1]: 37400 nM | Ki [2]: 440 nM | Ki [3]: 15400 nM | inhibition [4]: inactive | Activity [37]: 252 nm | Activity [38]: 79 nm | Activity [39]: 211 nm | Activity [40]: ~ 250 nm
